Converted amounts (≈) assume the structure as drawn. Read-outs that look alike come from different tables or passages of the source.

Assay [1] has as its system multidrug-resistant strain MDR-FJ05120. As to the kind of experiment: microbe, parasite or virus in culture. The class given is cell-based. Conditions: Mycobacterium tuberculosis, 168 h.
Assay [2] has as its system extensive drug-resistant strain XDR-XZ06008. As to the kind of experiment: microbe, parasite or virus in culture. Conditions: Mycobacterium tuberculosis, 168 h. The class given is cell-based.
The subject of assay [3] is multidrug-resistant strain MDR-FJ05189. As to the kind of experiment: microbe, parasite or virus in culture. The class given is cell-based. Conditions: Mycobacterium tuberculosis, 168 h.
For assay [4], the system named is extensive drug-resistant strain XDR-FJ05195. As to the kind of experiment: microbe, parasite or virus in culture. In kind it is cell-based. Conditions: Mycobacterium tuberculosis, 168 h.
The target of the next assay is Mt-P79A-dUTPase (Mycobacterium tuberculosis, UniProt P9WNS5, P79A). The class given is binding.
Where [5] appears, read: […], MABA, 7 days at 37°C, read-out: MIC.

For `CO[C@H]1/C=C/O[C@@]2(C)Oc3c(C)c(O)c4c(O)c(c(/C=N/N5CCN(C)CC5)c(O)c4c3C2=O)NC(=O)/C(C)=C\C=C\[C@H](C)[C@H](O)[C@@H](C)[C@@H](O)[C@@H](C)[C@H](OC(C)=O)[C@@H]1C` [Rifampicin], the MIC in assay [1] was greater than 256 µg/mL; in assay [2] it was greater than 256 µg/mL; in assay [3] it was greater than 256 µg/mL; in assay [4] it was 4 µg/mL (≈ 4.86 µM).
Take `NNC(=O)c1ccncc1` [Isoniazid]: the MIC in assay [1] (setting [5]) is 4 µg/mL (≈ 29.2 µM); in assay [2] (setting [5]), greater than 256 µg/mL; in assay [3] (setting [5]), less than 0.5 µg/mL; in assay [4] (setting [5]), greater than 256 µg/mL.
Turning to `C=CCn1c(/C=C/c2ccccc2)nc2ccccc21` [F0414], the MIC was determined as 8 µg/mL (≈ 30.7 µM) in assay [1] (setting [5]), 8 µg/mL (≈ 30.7 µM) in assay [2] (setting [5]), 2 µg/mL (≈ 7.68 µM) in assay [3] (setting [5]) and 2 µg/mL (≈ 7.68 µM) in assay [4] (setting [5]). Further, the “SPR binding to Mt-P79A-dUTPase” value at Mt-P79A-dUTPase is “much weaker affinity”.

The record behind these values is publication PMC8544286, “Screening and Identification of a Novel Anti-tuberculosis Compound That Targets Deoxyuridine 5′-Triphosphate Nucleotidohydrolase” (Frontiers in Microbiology, 2021).
